We go through eight compounds from PMC8533253, “Bis-thiobarbiturates as Promising Xanthine Oxidase Inhibitors: Synthesis and Biological Evaluation” (Biomedicines, 2021).

In one data set the target is T1, Xanthine oxidase (XO) (Bos taurus, UniProt P80457).
T1 construct: purchased Sigma-Aldrich X4875
The experiment in a line: XO inhibitory assay (spectrophotometric quantification of uric acid formation at 295 nm). The format is biochemical. As to conditions: for inhibition at 5 µM / inhibition at 30 µM: read-out: XO inhibition (%). The procedure:
XO inhibitory and antioxidant assays were performed in triplicate while antiproliferative assay was conducted in quadruplicate. For each assay, at least two independent experiments were performed. An initial screening at the concentration of 30 μM for all compounds under study was performed in each in vitro study. […] Half-maximal inhibitory concentration (IC50) studies were performed for drugs used as a reference and for the most promising bis-thiobarbiturate in XO inhibitory, antioxidant, and cytotoxicity assays.
The XO inhibitory activity was evaluated by spectrophotometric quantification of uric acid formation. The 50 mM dihydrogen phosphate buffer (pH 7.4) was used to dilute all solutions. For each assay performed, 50 μL of the test solution and 50 μL of the 0.1 U/mL XO (Sigma-Aldrich X4875, St. Louis, MO, USA) solution were added in each well of an Elisa microplate (96 wells) followed by 5 min of incubation at 37 °C. […] The reaction started with the addition of 150 μL of a xanthine solution (420 μM). The absorbance was recorded at a wavelength of 295 nm every minute for 10 min. To obtain only the absorbance associated with uric acid, a solution consisting of 50 μL of the test solution, 150 μL of the xanthine solution, and 50 μL of buffer were used as blank. […] For each compound, the percentage of enzyme inhibition was calculated according to the following formula:% of XO inhibition = [1 − (ABSsample − ABSblank of sample)/ABSnegative control] × 100
(§1) All in vitro results are expressed as mean values ± standard deviation (SD) of at least two independent determinations. The difference between groups was analyzed for each assay by Student’s t-test. The IC50 values were calculated by sigmoidal fitting analysis considering a 95% confidence interval.

A short description of data set [1]: Antioxidant assay, DPPH method. As to conditions: 60 min. The procedure: (§2) XO inhibitory and antioxidant assays were performed in triplicate while antiproliferative assay was conducted in quadruplicate. For each assay, at least two independent experiments were performed. An initial screening at the concentration of 30 μM for all compounds under study was performed in each in vitro study. A second screening at 5 μM was performed for compounds that originated an inhibitory potential higher than 80% for the XO activity at 30 μM. Half-maximal inhibitory concentration (IC50) studies were performed for drugs used as a reference and for the most promising bis-thiobarbiturate in XO inhibitory, antioxidant, and cytotoxicity assays.
Antioxidant potential was spectrophotometrically evaluated by the 2,2-diphenyl-1-picrylhydrazyl (DPPH, Sigma-Aldrich, St. Louis, MO, USA) method. All solutions and dilutions were prepared in 99.5% ethanol before each experiment. For each assay, 100 μL of the test solution and 100 μL of DPPH solution (0.2 mM) were added to each well of a 96 wells Elisa microplate. […] After 60 min of incubation in dark at rt, the capacity of each compound to reduce DPPH was followed by measuring the absorbance at 517 nm. Ethanol was used as a negative control and Trolox as the positive control. To discount the absorbance of each compound at 517 nm, a blank was performed with 100 μL of each test compound and 100 μL of ethanol. The antioxidant capacity of each sample was calculated according to the following formula:% DPPH scavenging = [1 − (ABSsample − ABSblank of sample)/ABSnegative control] × 100
as §1
(In general: The DPPH test is a chemical assay of radical scavenging.)

Data set [2] is described as follows: Cytotoxicity assay (MTT) on NHDF. As to conditions: human, NHDF cells (non-tumor human dermal fibroblasts), 72 h, MTT; for viability at 72 h, 30 µM: read-out: Cytotoxicity (% cell viability at 30 µM) NHDF. It counts as cell-based, human. The protocol: as §2
(§3) The cytotoxic potential of the compounds being studied was evaluated by quantifying the extent of the reduction of 3-(4,5-dimethylthiazol-2-yl)-2,5-diphenyltetrazolium bromide (MTT, VWR, Radnor, PA, USA) on tumor cell lines of the colon (Caco-2) and breast (MCF-7) adenocarcinoma and non-tumor human dermal fibroblasts (NHDF). All cell lines were obtained from the American Type Culture Collection (ATCC, Manassas, VA, USA) and were maintained in 75 cm^2 culture flasks in a humidified air incubator with 5% CO2 at 37 °C. NHDF cells have grown in RPMI 1640 medium (Sigma-Aldrich, St. Louis, MO, USA) supplemented with 10% fetal bovine serum (FBS), 10 mM 4-(2-hydroxyethyl)-1-piperazineethanesulfonic acid (HEPES), 2 mM L-glutamine, 1 mM sodium pyruvate, and 1% antibiotic/antimycotic (Ab: 10,000 units/mL penicillin G, […] streptomycin and 25 μg/mL amphotericin B). MCF-7 cells were cultured in high-glucose Dulbecco’s modified Eagle medium (DMEM, Sigma-Aldrich, St. Louis, MO, USA) supplemented with 10% FBS, and 1% Ab. The Caco-2 cell line was cultured in a high glucose DMEM supplemented with 20% FBS and 1% of the antibiotic mixture (Sp: 10,000 units/mL penicillin G and […] of streptomycin). For the assay, cells were seeded in 96-well plates (2 × 10^4 cells/mL) in the culture medium. After 48 h of adherence, cells were treated with the test solutions and incubated for 72 h. […] Untreated cells were used as a negative control and 5-FU as the positive control. Following incubation, the medium was removed and replaced with a fresh incomplete culture medium (without FBS and Ab or Sp) and MTT solution [5 mg/mL in phosphate buffer saline (PBS)]. After further incubation for 4 h at 37 °C, the medium with MTT was removed, formazan crystals were dissolved in DMSO, and the absorbance was read at 570 nm. Results were expressed as the relative cell proliferation in comparison with the negative control cells.
as §1

Data set [3] concerns NHDF cells (non-tumor human dermal fibroblasts). The experiment in a line: Cytotoxicity assay (MTT) on NHDF. It counts as cell-based. The protocol:
as §2, §3, §1

Data set [4] can be described thus: Cytotoxicity/antiproliferative assay (MTT) on Caco-2. As to conditions: human, read-out: Cytotoxicity (% cell viability at 30 µM) Caco-2. The format is cell-based. The protocol:
as §2, §3, §1

Data set [5] in a line: Cytotoxicity/antiproliferative assay (MTT) on MCF-7. The format is cell-based. As to conditions: human, MCF-7 cells (breast adenocarcinoma), read-out: Cytotoxicity (% cell viability at 30 µM) MCF-7. The procedure: as §2, §3, §1

Each structure is given as a SMILES string.

T1 sequence (P80457 whole entry): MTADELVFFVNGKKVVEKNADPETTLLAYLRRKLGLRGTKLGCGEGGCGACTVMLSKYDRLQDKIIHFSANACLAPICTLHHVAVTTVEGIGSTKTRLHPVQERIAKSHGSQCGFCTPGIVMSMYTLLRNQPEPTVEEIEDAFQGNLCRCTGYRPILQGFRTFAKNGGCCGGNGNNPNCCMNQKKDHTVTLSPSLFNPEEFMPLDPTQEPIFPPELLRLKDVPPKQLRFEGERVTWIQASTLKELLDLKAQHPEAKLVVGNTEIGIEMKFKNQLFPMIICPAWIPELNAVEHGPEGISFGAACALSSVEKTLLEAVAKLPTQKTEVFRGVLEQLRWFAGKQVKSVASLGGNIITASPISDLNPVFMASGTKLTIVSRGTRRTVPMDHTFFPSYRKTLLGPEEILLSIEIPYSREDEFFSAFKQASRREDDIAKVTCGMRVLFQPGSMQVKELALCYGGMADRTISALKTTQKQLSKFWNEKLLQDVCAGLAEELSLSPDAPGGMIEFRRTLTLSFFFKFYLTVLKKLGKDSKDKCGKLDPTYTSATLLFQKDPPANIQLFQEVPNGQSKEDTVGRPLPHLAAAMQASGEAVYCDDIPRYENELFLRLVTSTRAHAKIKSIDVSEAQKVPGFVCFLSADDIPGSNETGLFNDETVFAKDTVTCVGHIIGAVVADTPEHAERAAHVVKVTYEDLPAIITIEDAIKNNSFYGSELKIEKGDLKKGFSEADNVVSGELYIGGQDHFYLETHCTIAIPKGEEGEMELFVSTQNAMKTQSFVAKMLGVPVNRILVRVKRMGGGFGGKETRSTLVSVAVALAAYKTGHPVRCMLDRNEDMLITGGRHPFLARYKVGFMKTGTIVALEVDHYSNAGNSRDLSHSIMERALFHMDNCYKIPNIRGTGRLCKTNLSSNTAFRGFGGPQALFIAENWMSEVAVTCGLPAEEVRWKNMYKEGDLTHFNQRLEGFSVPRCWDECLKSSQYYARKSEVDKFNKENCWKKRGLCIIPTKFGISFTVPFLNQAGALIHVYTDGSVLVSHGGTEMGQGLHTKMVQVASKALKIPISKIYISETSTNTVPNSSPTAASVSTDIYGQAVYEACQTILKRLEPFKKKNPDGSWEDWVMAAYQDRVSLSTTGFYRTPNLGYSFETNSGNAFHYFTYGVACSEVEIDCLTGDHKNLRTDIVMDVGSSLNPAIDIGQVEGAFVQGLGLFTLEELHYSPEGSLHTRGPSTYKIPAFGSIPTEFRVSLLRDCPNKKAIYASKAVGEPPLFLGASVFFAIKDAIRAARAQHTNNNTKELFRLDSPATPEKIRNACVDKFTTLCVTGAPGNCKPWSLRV

On to `CCn1c(O)c(C(c2ccc(Br)cc2)c2c(O)n(CC)c(=S)n(CC)c2=O)c(=O)n(CC)c1=S` [Compound 11, 5,5′-((4-Bromophenyl)methylene)bis(1,3-diethyl-6-hydroxy-2-thioxo-2,3-dihydropyrimidin-4(1H)-one)], for which the IC50 against Xanthine oxidase (XO) worked out at 1.79 ± 0.07 µM; in data set [1] (read-out: DPPH Scavenging IC50) it was 24.7 ± 0.88 µM. On Xanthine oxidase (XO), the inhibition at 5 µM came out at 80.9%. Further, the inhibition at 30 µM at Xanthine oxidase (XO) was 95.7%. In addition, in data set [1], the “DPPH (% scavenging at 30 µM)” value is recorded as 57.25 ± 0.98%. The viability at 72 h, 30 µM stood at 94.3 ± 7.84% in data set [2], 72.3 ± 9.76% in data set [4] and 92.2 ± 3.68% in data set [5]. The same compound returned an IC50 at 72 h in data set [2] of 93.2 ± 5.54 µM. Also, the “selectivity index for DPPH scavenging activity” value in data set [3] (NHDF cytotoxicity versus DPPH scavenging) was 3.77. Also, the “selectivity index for XO inhibition” value in data set [3] (NHDF cytotoxicity versus XO inhibition) is on record as 52.04.
In turn, `CCn1c(O)c(C(c2ccc(C#N)cc2)c2c(O)n(CC)c(=S)n(CC)c2=O)c(=O)n(CC)c1=S` [Compound 5, 4-(Bis(1,3-diethyl-6-hydroxy-4-oxo-2-thioxo-1,2,3,4-tetrtahydropyrimidin-5-yl)methyl)benzonitrile] came in with a melting point of 199 to 200 °C. Besides, on Xanthine oxidase (XO), the inhibition at 5 µM amounted to 52.9% and the inhibition at 30 µM was 86.1%. Further, the “DPPH (% scavenging at 30 µM)” value in data set [1] was 34.76 ± 1.42%. In addition, the viability at 72 h, 30 µM in data set [2] was found to be 86.5 ± 5.92%. Also, the viability at 72 h, 30 µM in data set [4] stood at 62.5 ± 11.9%. For the same compound, the viability at 72 h, 30 µM in data set [5] was 90.7 ± 4.06%.
Compound `CCn1c(O)c(C(C(C)=Cc2ccccc2)c2c(O)n(CC)c(=S)n(CC)c2=O)c(=O)n(CC)c1=S` [Compound 18, 5,5′-(2-Methyl-3-phenylprop-2-ene-1,1-diyl)bis(1,3-diethyl-6-hydroxy-2-thioxo-2,3-dihydropyrimidin-4(1H)-one)] came in with a melting point of 145 to 146 °C. Moreover, on Xanthine oxidase (XO), the inhibition at 5 µM stood at 63.4 ± 2.1% and the inhibition at 30 µM turned out to be 98.85 ± 0.82%. Further, in data set [1], the “DPPH (% scavenging at 30 µM)” value was 31.04 ± 0.66%. Also, the viability at 72 h, 30 µM in data set [2] was 86.5 ± 2.38%. Further, in data set [4], the viability at 72 h, 30 µM stood at 94.7 ± 7.19%. Further, the viability at 72 h, 30 µM in data set [5] was determined as 88.3 ± 3.29%.
The compound `CCn1c(O)c(C(c2ccccc2[N+](=O)[O-])c2c(O)n(CC)c(=S)n(CC)c2=O)c(=O)n(CC)c1=S` [Compound 13, 5,5′-((2-Nitrophenyl)methylene)bis(1,3-diethyl-6-hydroxy-2-thioxo-2,3-dihydropyrimidin-4(1H)-one)] came in with a melting point of 172 to 173 °C. For the same compound, on Xanthine oxidase (XO), the inhibition at 5 µM stood at 37.4% and the inhibition at 30 µM worked out at 89.7%. The “DPPH (% scavenging at 30 µM)” value in data set [1] is recorded as 29.90 ± 0.50%. Further, the viability at 72 h, 30 µM in data set [2] amounted to 75.8 ± 2.41%. Further, the viability at 72 h, 30 µM in data set [4] is 95.4 ± 4.17%. Besides, the viability at 72 h, 30 µM in data set [5] came to 98.2 ± 3.25%.
`CCn1c(O)c(C(c2cccc(O)c2)c2c(O)n(CC)c(=S)n(CC)c2=O)c(=O)n(CC)c1=S` [Compound 12, 5,5′-((3-Hydroxyphenyl)methylene)bis(1,3-diethyl-6-hydroxy-2-thioxo-2,3-dihydropyrimidin-4(1H)-one)] showed a melting point of 191 to 193 °C. The inhibition at 30 µM at Xanthine oxidase (XO) was 72.2%. The “DPPH (% scavenging at 30 µM)” value in data set [1] worked out at 42.92 ± 0.61%. Also, the viability at 72 h, 30 µM in data set [2] turned out to be 85.6 ± 7.17%. Further, in data set [4], the viability at 72 h, 30 µM is 90.9 ± 3.84%. In addition, in data set [5], the viability at 72 h, 30 µM was 91.7 ± 4.91%.
With `O=c1[nH]c(=S)[nH]c(O)c1C(c1ccc([N+](=O)[O-])cc1)c1c(O)[nH]c(=S)[nH]c1=O` [Compound 7, 5,5′-((4-Nitrophenyl)methylene)bis(6-hydroxy-2-thioxo-2,3-dihydropyrimidin-4(1H)-one)], the melting point is 225 °C (dec.). Moreover, at Xanthine oxidase (XO), the inhibition at 30 µM turned out to be 20.9%. Moreover, in data set [1], the “DPPH (% scavenging at 30 µM)” value is given as 32.41 ± 0.26%. Moreover, the viability at 72 h, 30 µM in data set [2] was 96.6 ± 4.32%. The viability at 72 h, 30 µM in data set [4] was found to be 97.1 ± 3.63%. Further, in data set [5], the viability at 72 h, 30 µM is 98.7 ± 4.83%.
On to `CCn1c(O)c(C(c2ccc([N+](=O)[O-])cc2[N+](=O)[O-])c2c(O)n(CC)c(=S)n(CC)c2=O)c(=O)n(CC)c1=S` [Compound 15, 5,5′-((2,4-Dinitrophenyl)methylene)bis(1,3-diethyl-6-hydroxy-2-thioxo-2,3-dihydropyrimidin-4(1H)-one)], for which the melting point lay in the range of 169 to 170 °C. For the same compound, the inhibition at 30 µM on Xanthine oxidase (XO) was 14.9%. Besides, in data set [1], the “DPPH (% scavenging at 30 µM)” value is recorded as 32.33 ± 0.48%. Further, the viability at 72 h, 30 µM in data set [2] turned out to be 91.2 ± 7.77%. In addition, the viability at 72 h, 30 µM in data set [4] was found to be 96.9 ± 4.73%. Besides, the viability at 72 h, 30 µM in data set [5] worked out at 91.2 ± 4.26%.
With `CCn1c(O)c(C(c2ccccc2)c2c(O)n(CC)c(=S)n(CC)c2=O)c(=O)n(CC)c1=S` [Compound 3, 5,5′-(Phenylmethylene)bis(1,3-diethyl-6-hydroxy-2-thioxo-2,3-dihydropyrimidin-4(1H)-one)], the melting point was 177 to 179 °C. Also, on Xanthine oxidase (XO), the inhibition at 5 µM was 10.4% and the inhibition at 30 µM stood at 80.2%. Moreover, in data set [1], the “DPPH (% scavenging at 30 µM)” value is on record as 34.58 ± 0.96%. The viability at 72 h, 30 µM in data set [2] was determined as 88.7 ± 1.4%. Also, in data set [4], the viability at 72 h, 30 µM came out at 91.2 ± 9.87%. The viability at 72 h, 30 µM in data set [5] is 90 ± 5.33%.

As a reminder, the IC50 is the concentration needed to halve the response being measured. By inhibition is commonly meant the change of the read-out against control, counted positive when it falls. The term viability denotes a per cent measure of how many cells are alive, often set against a control. Usually melting point stands for the temperature of the solid-liquid transition.
